This note sets out measurements from patent publication US11229810B2, “Methods and systems for producing neuronal lesions using magnetic resonance and acoustic energy” (University of Virginia Patent Foundation, priority 2017, dated 2022).

The assay has as its system lateral aspect of the hippocampus. The assay is described as follows: MRgFUS + microbubbles + QA lesion study in rats, followed by T2-TSE MR imaging. In kind it is in vivo, Male Sprague Dawley rats. To be noted: rat, QA 0.06 mmol (1 ml of 10 mg/ml) intraperitoneally once per day for 4 days beginning 2 days prior to insonification, saline-treated animals normal. The method, then: An illustrative example is described below, concerning a study of techniques herein as applied to a particular subject. Male Sprague Dawley rats (e.g., 5-6 weeks of age (120-150 g)), were divided into two groups receiving the following treatments: 1) MRgFUS+microbubbles+saline (n=5), or 2) MRgFUS+microbubbles+QA (n=5). QA was dissolved in 0.1M PBS (10 mg/ml). Either 1 ml of the QA solution (0.06 mmol) or 1 ml of saline was injected intraperitoneally once per day for 4 days beginning 2 days prior to insonification. Phospholipid encapsulated microbubbles (mean size: ˜5 um; concentration: 6×10^8 microbubbles/ml; volume injected: 300 μl/kg) and Gadodiamide contrast (Omniscan, 0.2 ml/kg) were delivered via the tail vein just prior to sonification.
An acoustic energy delivery system was configured in a manner similar to that discussed above as in system 100 and in this illustrative example, the system included an MR-compatible, pre-focused, 8-element annular array comprising 1.5 MHz transducers 111 (e.g., having spherical radius=20 mm±2 mm, active diameter=25 mm [focal ratio=0.8]; an ultrasonic transducer with 80% electric-acoustic efficiency, which was connected to a phased array generator and RF power amplifier. An MR-compatible motorized positioning stage was used to move the transducer in the rostral-caudal and medial-lateral directions. […]

Consider `O=C(O)c1cccnc1C(=O)O` [QA, quinolinic acid], for which the “T2-TSE imaging appearance of brain, 24 hours post-insonification” value (24 hours post-insonification) was “exhibited hyperintensity in the area of insonification”. Further, the “T2-TSE imaging appearance of brain, 7 days post-insonification” value (7 days post-insonification, no evidence of a lesion) is given as “exhibited signs of damage in the region of insonification”.
